Results on two compounds are retold here after patent US20130150455A1, “METHOD FOR TREATING MECHANICAL ALLODYNIA COMPRISING ADMINISTRATION OF EUGENOL” (SNU R&DB FOUNDATION, priority 2011, published 2013).

Assay [1] has as its system injured nerve fibers. Conditions: in vivo; cited from earlier work.
Assay [2] deals with Ih conductance. The note with it: cited from earlier work.
Assay [3] concerns voltage-gated sodium channels (VGSCs). The experiment in a line: VGSC currents in TG neurons in normal bath solution. Conditions: 200 μM, n=3. Type of assay: cell-based, rat. The method, then: (B) The left figure represents the comparison of action potentials at an expanded time scale before and after exposure to eugenol (200 μM), and the Right figure represents a summary of the dV/dt analysis. (C) The left figure represents superimposed current traces before and during exposure to eugenol (200 μM) in the normal bath solution where inward currents result from VGSCs, and the right figure represents a summary of eugenol-induced VGSC currents inhibition (n=3).
Whole-cell recordings were made using patch electrodes (4 to 6 MΩ) pulled from borosilicate glass on a Brown-Flaming P-97 horizontal micropipette puller (Sutter Instruments, Novato, Calif.). Voltage- and current-clamp experiments were performed using an HEKA EPC9 amplifier and digitized using ITC16 and Pulse v8.54 software (both from HEKA, Lambrecht/Pfalz, Germany). Signals were filtered at 1 kHz and sampled at 3 kHz. Series resistance was typically less than 20 MΩ and was compensated by about 70 to 80%. Electrical recordings were performed at room temperature. The 3 M KCl agar bridge (Warner Instruments, Hamden, Conn.) is used to avoid high liquid junction potentials. Data were analyzed by Origin 6.0 software.
Extracellular solution containing 140 mM NaCl, 2 mM CaCl2, 1 mM MgCl2, 5 mM KCl, 10 mM HEPES, 10 mM D-glucose was adjusted to pH 7.4 with NaOH, 290 to 310 mOsm. […]

The test system of assay [4] is TG neurons. Briefly: Current-clamp action potential firing in TG neurons. It is filed as cell-based, rat. The note with it: 200 μM. The method, then: TG neurons from 2- to 7-day-old neonatal rats or adult rats (200 to 300 g) were prepared as previously described [Fang, Z. et al., J. Biol. Chem., 2007, 282: 4757-4764]. Briefly, TG neurons prepared in 4° C. Hanks balanced salt solution (Welgene, Daegu, Korea) were incubated in 2 mL Hanks balanced salt solution containing 0.167% trypsin (Invitrogen, Carlsbad, Calif.) at 37° C. for 40 min. The cells were washed in DMEM and triturated with a flame-polished Pasteur pipette to separate cells and remove processes, and subsequently centrifuged (750 RPM, 5 min), resuspended and placed on 0.5 mg/mL poly-L-ornithine (Sigma, St. Louis, Mo.)-coated glass coverslips (12 mm in diameter). The cells were maintained at 37° C. in a […]/5% CO2 incubator.
Whole-cell recordings were made using patch electrodes (4 to 6 MΩ) pulled from borosilicate glass on a Brown-Flaming P-97 horizontal micropipette puller (Sutter Instruments, Novato, Calif.). Voltage- and current-clamp experiments were performed using an HEKA EPC9 amplifier and digitized using ITC16 and Pulse v8.54 software (both from HEKA, Lambrecht/Pfalz, Germany). […] Data were analyzed by Origin 6.0 software. […]
Ih was elicited by a 2 s pulse from a holding potential of −50 mV to −120 mV in 10 mV steps. […] The reversal potential of the eugenol-sensitive currents was determined by measuring the tail currents. […]

Assay [5] relates to voltage-gated sodium channels (VGSCs). Conditions: conventional concentration, equals 50 μg; cited from earlier work.
Assay [6] has as its system ION-CCI rats. The experiment in a line: Mechanical allodynia, air-puff threshold head withdrawal test. Type of assay: in vivo, rat. The method, then:
(§1) All surgical and experimental procedures were reviewed and approved by the Institutional Animal Care and Use Committee at the School of Dentistry, Seoul National University. Animal treatments were performed in strict accordance with the ethical guidelines of the International Association for the Study of Pain for the investigations of experimental pain in conscious animals [Zimmermann, M., Pain, 1983, 16: 109-110], and the National Institute of Health Guide for the Care and Use of Laboratory Animals. Behavioral tests were carried out on male Sprague Dawley rats (OrientBio, Sungnam, Korea) weighing 200-250 g. The rats were maintained in a temperature-controlled room with a 12/12-h light/dark cycle and fed food and water ad libitum. The animals were allowed to habituate to the housing facilities for 1 week before the experiments.
(§2) Surgical procedures were performed under 0.5 mL/kg (i.m.) of a mixture of equal volumes of ketamine (100 mg/mL) and xylazine (20 mg/mL) anesthesia. Under anesthesia, a chronic constriction injury of the infraorbital nerve (ION-CCI) was performed from the original description of Imamura et al. [Imamura, Y. et al., Exp. Brain Res., 1997, 116: 97-103]. A 1-cm-long incision was made along the gingivobuccal margin. The incision was begun proximal to the first molar. Approximately 0.5 cm of the ION was separated from the adhering tissue, and 2 ligatures (5-0 chromic gut) were tied loosely around it. The incision was sutured at 3 points with 4-0 silk. The sham operation was performed without ligation of the infraorbital nerve.
On postoperative 7 day, ION-CCI rats were placed in customized observation cages that were then placed in a darkened and noise-free room to conduct behavioral observations. The animals were acclimated for at least 30 min. Mechanical allodynia was determined as previously described [Ahn, D. K. et al., Pain, 2009, 146: 114-120], by observing withdrawal behavior, produced by 10 successive trials of constant air-puff pressure (4-s duration, 10-s intervals) in freely moving rats. The intensity and intervals of the air-puff pressure were controlled with a pneumatic pump module (BH2 system, Harvard Apparatus, Holliston, Mass.). The air puffs were applied through a 26-gauge metal tube (length, 10 cm) located 1 cm from the skin at a 90° angle. Thresholds were determined through the air-puff pressure at which each rat withdrew its head in 50% of the trials. The cutoff pressure for the air puffs was 40 psi. […] After eugenol (1 μg/30 μL, 5 μg/30 μL or 10 μg/30 μL; 200 μM, 1 mM, or 2 mM, respectively) was administered subcutaneously into the vibrissa pad, air-puff thresholds were determined at 15 and 30 min, and at 1, 2, 3, 4, 5, 6, and 24 hr after eugenol injection. In the control group, 30 μL of the vehicle (30% DMSO/saline) was injected subcutaneously.

Assay [7] has as its system ION-CCI rats. The note with it: >50 μg; cited from earlier work.
The test system of assay [8] is hyperpolarization-activated current (Ih) in TG neurons (HCN channels). The experiment in a line: Whole-cell recordings of Ih in TG neurons. It is filed as cell-based, rat.
The subject of assay [9] is ION-CCI rats. Briefly: Thermal hyperalgesia, head withdrawal latency to radiant heat. Type of assay: in vivo, rat. The method, then: as §1, §2
Thermal hyperalgesia was also determined as previously described [Ahn, D. K. et al., Pain, 2009, 146: 114-120; Park, C. K. et al., Pain, 2009, 144: 84-94]. Each rat was placed in a customized cylinder-type acrylic rodent restrainer (height 40 to 60 mm, length 70 to 120 mm). […] Each restrainer was placed in a darkened and noise-free room, and the animals were habituated for at least 30 min before the start of the experiment. After radiant heat was applied to the midregion of the left vibrissa pad, the head withdrawal latency was determined. The application of heat stimuli was performed using an infrared thermal stimulator (Infrared Diode Laser, LVI-808-10, LVI tech, Seoul, Korea). The power and current of the thermal stimulator were adjusted to 11 W and 18.1 A, respectively. The thermal stimuli produced stable withdrawal latencies of approximately 11 s for a 10-cm distance from the heat source to the vibrissa pad. […] After eugenol (10 μg/30 μL or 50 μg/30 μL; 2 mM or 10 mM, respectively) was administered subcutaneously into the vibrissa pad, the latencies of withdrawal responses were determined at 10, 20, 30, 40, 50, and 60 min and 24 h after eugenol injection. […]

Setting [10] is: concentration lower than that which would inhibit VGSCs (50 μg; 10 mM).

“Also recorded” adds a separate entry of the source.

On to `CCN(c1ccccc1)c1cc(=NC)n(C)c(C)n1.Cl` [ZD7288], for which, in [1], the pain behavior entry was “reversed” and the “spontaneous discharges in injured nerve fibers” value is listed as “reversed”. Further, in assay [2], the action potential duration result was “prolonged” and the “repetitive firing during tetanic bursts” value is listed as “diminished”.
In the case of `C=CCc1ccc(O)c(OC)c1` [eugenol, 4-allyl-2-methoxyphenol], the VGSC currents result in [3] is “not affected”. For the same compound, in assay [4], the “dV/dt of action potential” value is “not changed”. In assay [4] (50 pA depolarizing current injection, n=4), the “firing rates of action potentials” value was “reduced”. For the same compound, the “concentration at which eugenol inhibits VGSCs” value in assay [5] is 10 mM. Moreover, the air-puff thresholds entry in assay [6] (1 μg subcutaneous into vibrissa pad, 7 day ION-CCI) is recorded as “significantly enhanced”. Moreover, the air-puff threshold entry in assay [6] (5 to 10 μg subcutaneous, cutoff 40 psi) was “reached the cutoff”. Further, in [6] (FIG. 7B), the onset of effect entry was “occurred immediately”. In addition, in assay [6] (setting [10]), the “effect on mechanical allodynia” value is on record as “ameliorating effect”. Also, the “antiallodynic effects on mechanical allodynia” value in [6] (subcutaneous 1 μg, 5 μg, 10 μg, n=6 per group, p<0.05) is given as “significantly produced prolonged the antiallodynic effects”. The “thermal pain / thermal hyperalgesia, previous study” value in assay [7] is listed as “blocks thermal pain in a dose-dependent manner; also recorded: ameliorated thermal hyperalgesia”. Besides, the “eugenol-induced Ih inhibition with 8-Br-cAMP” value in assay [8] (200 μM eugenol, 8-Br-cAMP (100 μM) in pipette solution, n=6) is 17.5±3.7%. The “eugenol-induced Ih inhibition with Rp-cAMPs” value in assay [8] (200 μM eugenol, Rp-cAMPs (100 μM), n=6) came out at 25.7±3.4%. Also, in assay [8] (200 μM eugenol, Sp-cAMPs (100 μM), n=5), the “eugenol-induced Ih inhibition with Sp-cAMPS” value was found to be 20.1±3.1%. In assay [8] (200 μM eugenol, TG neurons pretreated 5 min with NEM (50 μM), n=8), the “Ih inhibition after pretreatment with NEM” value is on record as 69.2±4.4%. For the same compound, the Ih inhibition came out at 73.0±3.9% in [8] (200 μM, TG neurons of adult (naive) rats, n=11); 63.3±1.6% in assay [8] (200 μM, TG neurons of neonatal rats, n=27); 67.5±4.0% in assay [8] (200 μM, injured DiI-labeled TG neurons of ION-CCI rats, n=7). Besides, the “reversibility of Ih inhibition” value in [8] (200 μM, sequential application, FIG. 2A) is “reversible and repetitively reproduced”. The “maximal Ih amplitude” value in [8] (200 μM, step pulses −50 to −120 mV, full range of voltages) is on record as “reduced”. Moreover, in [8] (200 μM, without NEM, n=8, FIG. 6A), the “Eugenol-induced Ih inhibition” value is recorded as 66.1±1.8%. Moreover, the Ih block entry in assay [8] (500 μM and 1 mM, FIG. 3) is reported as “complete Ih block”. Also, the “mean Vrev (reversal potential of Ih)” value in assay [8] (after application of 200 μM eugenol, n=4, control −29.4±2.3 mV) is given as −25.8±1.4 mV. The IC50 (in general, the concentration at which inhibition is half-maximal) in assay [8] (read-out: IC50 of Ih inhibition, TG neurons, dose dependent, FIG. 3) was 157 µM. In assay [9] (50 μg subcutaneous, n=6, p<0.05), the “thermal hyperalgesia / thermal hypersensitivity” value is reported as “significantly reduced; also recorded: significantly inhibited”. The thermal hyperalgesia entry in assay [9] (<10 μg) was “not effective”. Moreover, the “effect on thermal hyperalgesia” value in assay [9] (setting [10]) is recorded as “no effect”. The thermal hypersensitivity result in assay [9] (low dose 10 μg subcutaneous, n=6) is “no effect”.
